Measured values from PubChem BioAssay AID2067 (The Scripps Research Institute Molecular Screening Center, 2009).

Biological target: Collagenase 3 (Homo sapiens) (UniProt P45452)
Assay: MMP13 inhibition and MMP selectivity, late-stage follow-up, selectivity assay for MMP13 inhibitor project, biochemical, probe development, late stage results (AID 2067)
Details: recombinant MMP panel, fTHP FRET substrate cleavage, MMP-13; for Ki: Ki assay, MMP-13 Ki, Lineweaver-Burk

Compound	IC50	Ki
O=c1[nH]c(SCc2ccc(Cl)cc2)nc2c1CCC2	3360 nM	3800 nM
COC(=O)c1ccc(CSc2nc3c(c(=O)[nH]2)CCC3)cc1	2820 nM	1500 nM
Cc1ccc(CSc2nc3c(c(=O)[nH]2)CCC3)cc1	2440 nM	840 nM
